Results taken from patent publication US7935702B2, “Substituted biaryl quinolin-4-ylamine analogues” (Neurogen Corporation, priority 2004, dated 2011).
Where two headings read alike, the source gives them in different places.

Columns and labels:
VR = VR (Homo sapiens, UniProt Q8NER1); settings: background; typical value; cited from earlier work
human capsaicin receptor = molecular target: T1, human capsaicin receptor (Homo sapiens, UniProt Q8NER1); test: Calcium mobilization assay, determination of antagonist activity (Example 6); assay type: cell-based
T1 construct: expressed in transfected cells
Experimental: A cDNA encoding full length human capsaicin receptor (SEQ ID NO:1, 2 or 3 of U.S. Pat. No. 6,482,611) is subcloned in the plasmid pBK-CMV (Stratagene, La Jolla, Calif.) for recombinant expression in mammalian cells.
Human embryonic kidney (HEK293) cells are transfected with the pBK-CMV expression construct encoding the full length human capsaicin receptor using standard methods. The transfected cells are selected for two weeks in media containing G418 (400 μg/ml) to obtain a pool of stably transfected cells. Independent clones are isolated from this pool by limiting dilution to obtain clonal stable cell lines for use in subsequent experiments.
This Example illustrates representative calcium mobilization assays for use in evaluating test compounds for agonist and antagonist activity.
Cells transfected with expression plasmids (as described in Example 4) and thereby expressing human capsaicin receptor are seeded and grown to 70-90% confluency in FALCON black-walled, clear-bottomed 96-well plates (#3904, BECTON-DICKINSON, Franklin Lakes, N.J.). The culture medium is emptied from the 96 well plates and FLUO-3 AM calcium sensitive dye (Molecular Probes, Eugene, Oreg.) is added to each well (dye solution: 1 mg FLUO-3 AM, 440 μL DMSO and 440 μl 20% pluronic acid in DMSO, diluted 1:250 in Krebs-Ringer HEPES (KRH) buffer (25 mM HEPES, 5 mM KCl, 0.96 mM NaH2PO4, 1 mM MgSO4, 2 mM CaCl2, 5 mM glucose, 1 mM probenecid, pH 7.4), 50 μl diluted solution per well). Plates are covered with aluminum foil and incubated at 37° C. for 1-2 hours in an environment containing 5% CO2. After the incubation, the dye is emptied from the plates, and the cells are washed once with KRH buffer, and resuspended in KRH buffer.
To measure the ability of a test compound to agonize or antagonize a calcium mobilization response in cells expressing capsaicin receptors to capsaicin or other vanilloid agonist, the EC50 of the agonist capsaicin is first determined. An additional 20 μl of KRH buffer and 1 μl DMSO is added to each well of cells, prepared as described above. 100 μl capsaicin in KRH buffer is automatically transferred by the FLIPR instrument to each well. Capsaicin-induced calcium mobilization is monitored using either FLUOROSKAN ASCENT (Labsystems; Franklin, Mass.) or FLIPR (fluorometric imaging plate reader system; Molecular Devices, Sunnyvale, Calif.) instruments. Data obtained between 30 and 60 seconds after agonist application are used to generate an 8-point concentration response curve, with final capsaicin concentrations of 1 nM to 3 μM. KALEIDAGRAPH software (Synergy Software, Reading, Pa.) is used to fit the data to the equation: y=a*(1/(1+(b/x)^c)) to determine the 50% excitatory concentration (EC50) for the response. In this equation, y is the maximum fluorescence signal, x is the concentration of the agonist or antagonist (in this case, capsaicin), a is the Emax, b corresponds to the EC50 value and c is the Hill coefficient. Determination of Agonist Activity
Test compounds are dissolved in DMSO, diluted in 20 μl KRH buffer so that the final concentration of test compounds in the assay well is between 1 μM and 5 μM, and added to cells prepared as described above. The 96 well plates containing prepared cells and test compounds are incubated in the dark, at room temperature for 0.5 to 6 hours. It is important that the incubation not continue beyond 6 hours. Just prior to determining the fluorescence response, 100 μl capsaicin in KRH buffer at twice the EC50 concentration determined as described above is automatically added by the FLIPR instrument to each well of the 96 well plate for a final sample volume of 200 μl and a final capsaicin concentration equal to the EC50. The final concentration of test compounds in the assay wells is between 1 μM and 5 μM. […]

[1] = Table I, IC50 determined as described in Example 6, read-out: IC50

T1 sequence (Q8NER1 whole entry): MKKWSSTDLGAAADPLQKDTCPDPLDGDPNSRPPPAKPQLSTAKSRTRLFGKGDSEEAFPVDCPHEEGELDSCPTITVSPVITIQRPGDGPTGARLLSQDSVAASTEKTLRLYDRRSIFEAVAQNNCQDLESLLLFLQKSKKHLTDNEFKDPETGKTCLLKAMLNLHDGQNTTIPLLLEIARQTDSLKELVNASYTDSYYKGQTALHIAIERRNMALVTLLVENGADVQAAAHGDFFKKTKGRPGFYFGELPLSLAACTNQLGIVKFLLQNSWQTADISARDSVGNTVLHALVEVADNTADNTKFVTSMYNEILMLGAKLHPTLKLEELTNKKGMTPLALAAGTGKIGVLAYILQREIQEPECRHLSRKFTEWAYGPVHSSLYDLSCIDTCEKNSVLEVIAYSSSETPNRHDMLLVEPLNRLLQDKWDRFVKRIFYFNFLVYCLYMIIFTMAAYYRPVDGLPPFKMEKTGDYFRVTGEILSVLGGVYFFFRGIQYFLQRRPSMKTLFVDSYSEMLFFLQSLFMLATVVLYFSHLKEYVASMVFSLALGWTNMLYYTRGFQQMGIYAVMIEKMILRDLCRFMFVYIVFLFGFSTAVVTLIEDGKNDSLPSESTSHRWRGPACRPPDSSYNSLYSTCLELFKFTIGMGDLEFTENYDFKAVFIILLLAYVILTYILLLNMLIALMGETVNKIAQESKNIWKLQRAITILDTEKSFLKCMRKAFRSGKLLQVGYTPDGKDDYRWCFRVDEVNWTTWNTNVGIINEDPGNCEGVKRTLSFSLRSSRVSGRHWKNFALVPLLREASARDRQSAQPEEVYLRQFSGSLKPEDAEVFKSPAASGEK
Chain of VR (Q8NER1 whole entry): as above

Row | IC50 (human capsaicin receptor; [1]) | Compound | other results
1 | < 1000 nM | CCCCN(CC)c1cc(C(F)(F)F)c(-c2cnc3c(Nc4ccc(C(F)(F)F)cn4)ccnc3n2)nn1 [compound 152, 3-{6-[butyl(ethyl)amino]-4-(trifluoromethyl)pyridazin-3-yl}-N-[5-(trifluoromethyl)-pyridin-2-yl]pyrido[2,3-b]pyrazin-8-amine] | –
2 | < 1000 nM | OC1CN(c2cc(C(F)(F)F)c(-c3cnc4c(Nc5ccc(C(F)(F)F)cn5)ccnc4n3)nn2)C1 [compound 179, 1-[5-(trifluoromethyl)-6-(8-{[5-(trifluoromethyl)pyridin-2-yl]amino}pyrido[2,3-b]pyrazin-3-yl)pyridazin-3-yl]azetidin-3-ol] | –
3 | < 1000 nM | N#Cc1cnc(-c2cnc3c(Nc4ccc(C(F)(F)F)cn4)ccnc3n2)c(C(F)(F)F)c1 [compound 32, 5-Trifluoromethyl-6-[8-(5-trifluoromethyl-pyridin-2-ylamino)-pyrido[2,3-b]pyrazin-3-yl]-nicotinonitrile] | –
4 | < 1000 nM | C[C@@H](O)CNc1cc(C(F)(F)F)c(-c2cnc3c(Nc4ccc(C(F)(F)F)cn4)ccnc3n2)nn1 [compound 125, (R)-1-{[5-(trifluoromethyl)-6-(8-{[5-(trifluoromethyl)-pyridin-2-yl]amino}-pyrido[2,3-b]pyrazin-3-yl)pyridazin-3-yl]amino}propan-2-ol] | –
5 | < 1000 nM | NC(=O)c1ccc(C(F)(F)F)c(-c2ccc3c(Nc4ccc(C(F)(F)F)cn4)ccnc3n2)n1 [compound 25, 5-Trifluoromethyl-6-[5-(5-trifluoromethyl-pyridin-2-ylamino)-[1,8]naphthyridin-2-yl]-pyridine-2-carboxylic acid amide] | –

More lines, now with the values behind:

Row | Compound | IC50 (human capsaicin receptor; [1]) | other results
6 | Cl.Cl.Cl.Cl.Cl.Cl.N.N.N.N.N.N.N.N.N.N.N.N.N.N.[O-2].[O-2].[Ru+3].[Ru+3].[Ru+4] [ruthenium red] | – | Ki (VR): ≥ 140000 nM
7 | O=C(O)c1cnc(-c2cnc3c(Nc4ccc(C(F)(F)F)cn4)ccnc3n2)c(C(F)(F)F)c1 [compound 33, 5-(trifluoromethyl)-6-(8-{[5-(trifluoromethyl)-2-pyridinyl]amino}pyrido[2,3-b]pyrazin-3-yl)nicotinic acid] | < 1000 nM | –
8 | CCOc1nc(Nc2ccnc3nc(-c4ccc(C(=O)O)cc4C(F)(F)F)cnc23)ccc1C(F)(F)F [compound 44, 4-(8-{[6-ethoxy-5-(trifluoromethyl)pyridin-2-yl]amino}pyrido[2,3-b]pyrazin-3-yl)-3-(trifluoromethyl)benzoic acid] | < 1000 nM | –
9 | C=CCN(C)c1cc(C(F)(F)F)c(-c2cnc3c(Nc4ccc(C(F)(F)F)cn4)ccnc3n2)nn1 [compound 141, 3-{6-[allyl(methyl)amino]-4-(trifluoromethyl)pyridazin-3-yl}-N-[5-(trifluoromethyl)-pyridin-2-yl]pyrido[2,3-b]pyrazin-8-amine] | < 1000 nM | –
10 | CCN(CC)CCCCNc1cc(C(F)(F)F)c(-c2cnc3c(Nc4ccc(C(F)(F)F)cn4)ccnc3n2)nn1 [compound 69, N,N-diethyl-N′-[5-(trifluoromethyl)-6-(8-{[5-(trifluoromethyl)pyridin-2-yl]amino}pyrido[2,3-b]pyrazin-3-yl)pyridazin-3-yl]butane-1,4-diamine] | < 1000 nM | –
11 | NC(=O)c1cnc(-c2cnc3c(Nc4cnc(C(F)(F)F)cn4)ccnc3n2)c(C(F)(F)F)c1 [compound 34, 5-(trifluoromethyl)-6-(8-{[5-(trifluoromethyl)pyrazin-2-yl]amino}pyrido[2,3-b]pyrazin-3-yl)nicotinamide] | < 1000 nM | –
12 | Oc1ccc(C(F)(F)F)c(-c2ccc3c(Nc4ccc(C(F)(F)F)cn4)ccnc3n2)n1 [compound 21, 5-Trifluoromethyl-6-[5-(5-trifluoromethyl-pyridin-2-ylamino)-[1,8]naphthyridin-2-yl]-pyridin-2-ol] | < 1000 nM | –
13 | CN(C)CCCN(C)c1cc(C(F)(F)F)c(-c2cnc3c(Nc4ccc(C(F)(F)F)cn4)ccnc3n2)nn1 [compound 88, N,N,N′-trimethyl-N′-[5-(trifluoromethyl)-6-(8-{[5-(trifluoromethyl)pyridin-2-yl]amino}pyrido[2,3-b]pyrazin-3-yl)pyridazin-3-yl]propane-1,3-diamine] | < 1000 nM | –
14 | NC(=O)c1cnc(-c2cnc3c(Nc4cnc(C(F)(F)F)cn4)ccnc3n2)c(C(F)(F)F)c1 [Compound 15, 5-(Trifluoromethyl)-6-(8-(5-(trifluoromethyl)pyrazin-2-ylamino)pyrido[2,3-b]pyrazin-3-yl)nicotinamide] | – | IC50 (human capsaicin receptor; cells expressing human capsaicin receptor, capsaicin at EC50, read-out: IC50 determined as described in Example 6): < 1000 nM
15 | CC(=O)c1ccc(C(F)(F)F)c(-c2ccc3c(Nc4ccc(C(F)(F)F)cn4)ccnc3n2)n1 [compound 29, 1-{5-Trifluoromethyl-6-[5-(5-trifluoromethyl-pyridin-2-ylamino)-[1,8]naphthyridin-2-yl]-pyridin-2-yl}-ethanone] | < 1000 nM | –
